# From article PMC10999112 (Angewandte Chemie (International ed. in English), 2023)
# Biological target: recombinant WT-NSUN2 (Homo sapiens, UniProt Q08J23)
# Experiment: Gel-ABPP in lysate of WT-NSUN2-expressing HEK293T cells
# Format: binding
# Settings: recombinant WT-NSUN2 in HEK293T cell lysates
# Sequence of recombinant WT-NSUN2 (Q08J23 whole entry): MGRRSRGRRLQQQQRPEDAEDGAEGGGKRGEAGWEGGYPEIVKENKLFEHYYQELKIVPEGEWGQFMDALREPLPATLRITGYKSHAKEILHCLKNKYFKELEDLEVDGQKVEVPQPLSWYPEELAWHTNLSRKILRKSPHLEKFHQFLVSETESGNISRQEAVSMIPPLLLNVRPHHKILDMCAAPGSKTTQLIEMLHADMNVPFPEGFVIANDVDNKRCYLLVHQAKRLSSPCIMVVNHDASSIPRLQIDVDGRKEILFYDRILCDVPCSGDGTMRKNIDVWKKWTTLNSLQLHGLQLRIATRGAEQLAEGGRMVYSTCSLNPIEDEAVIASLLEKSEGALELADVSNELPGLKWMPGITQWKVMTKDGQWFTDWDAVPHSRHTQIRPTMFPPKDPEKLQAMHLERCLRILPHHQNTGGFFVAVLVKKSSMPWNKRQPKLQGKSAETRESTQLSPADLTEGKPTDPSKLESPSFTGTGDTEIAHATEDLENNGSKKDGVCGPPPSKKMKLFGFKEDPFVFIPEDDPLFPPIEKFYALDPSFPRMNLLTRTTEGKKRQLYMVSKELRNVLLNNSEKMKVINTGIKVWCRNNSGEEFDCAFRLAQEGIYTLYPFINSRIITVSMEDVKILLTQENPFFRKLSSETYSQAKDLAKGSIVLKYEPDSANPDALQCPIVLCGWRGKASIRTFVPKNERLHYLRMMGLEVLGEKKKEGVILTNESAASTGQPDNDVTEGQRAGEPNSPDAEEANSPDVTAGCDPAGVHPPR
smiles,measurement,value
"Nc1ncnc2c1ncn2[C@@H]1O[C@H](CSCC[C@H](N)C(=O)O)[C@@H](O)[C@H]1O [SAH, S-adenosylhomocysteine]",blockade of MY-11B reactivity with NSUN2,blocked in a concentration-dependent manner
